Experimental findings from patent US6656949B1, “4-anilinofuro [3,2-c] quinoline derivatives, and preparation processes and uses of the same” (Kaohsiung Medical University, priority 2002, dated 2003) are described below.

One data set deals with UO-31. The data set can be described thus: In vitro anticancer assay (NCI tumor cells screen), UO-31. In kind it is cell-based. The conditions noted are these: Homo sapiens; renal cancer cell line UO-31; read-out: GI50 against UO-31.
Data set [1] has as its system PC-3 and DU-145 of prostate cancer. The data set can be described thus: In vitro anticancer assay (NCI tumor cells screen), prostate cancer panel. The conditions noted are these: prostate cancer cell lines, read-out: GI50 (drug molar concentration causing 50% cell growth inhibition), Prostate Cancer. Type of data set: cell-based, human.
Data set [2] deals with 786-0, A498, ACHN, CAKI-1, RXF 393, SN12C, TK-10, and UO-31 of renal cancer. The data set can be described thus: In vitro anticancer assay (NCI tumor cells screen), renal cancer panel. In kind it is cell-based, human. The conditions noted are these: renal cancer cell lines, read-out: GI50 (drug molar concentration causing 50% cell growth inhibition), Renal Cancer.
Another data set has as its system UACC-62. The data set can be described thus: In vitro anticancer assay (NCI tumor cells screen), UACC-62. In kind it is cell-based. The conditions noted are these: Homo sapiens; melanoma cell line UACC-62; read-out: GI50 against UACC-62.
Data set [3] concerns 60 human tumor cell lines. The data set can be described thus: In vitro anticancer assay (NCI tumor cells screen), mean over 60 cell lines. In kind it is cell-based. Conditions: mean values over 60 cell lines tested.
Data set [4] relates to MCF7, MCF7/ADR-RES, MDA-MB-231/ATCC, HS 578T, MDA-MB-435, MDA-N, and T-47D of breast cancer. The data set can be described thus: In vitro anticancer assay (NCI tumor cells screen), breast cancer panel. Type of data set: cell-based, human. Conditions: breast cancer cell lines, read-out: GI50 (drug molar concentration causing 50% cell growth inhibition), Breast Cancer.
In data set [5] the test system is CCRF-CEM, HL-60 (TB), K-562, MOLT-4, RPMI-8226, and SR of leukemia. The data set can be described thus: In vitro anticancer assay (NCI tumor cells screen), leukemia panel. The conditions noted are these: leukemia cell lines, read-out: GI50 (drug molar concentration causing 50% cell growth inhibition), Leukemia. In kind it is cell-based.
In data set [6] the test system is LOX IMVI, MALME-3M, M14, SK-MEL-2, SK-MEL-28, SK-MEL-5, UACC-62, and UACC-257 of melanoma. The data set can be described thus: In vitro anticancer assay (NCI tumor cells screen), melanoma panel. In kind it is cell-based, human. Conditions: melanoma cell lines, read-out: GI50 (drug molar concentration causing 50% cell growth inhibition), Melanoma.
For data set [7], the system named is COLO 205, HCC-2998, HCT-116, HCT-15, HT29, KM12, and SW-620 of colon cancer. The data set can be described thus: In vitro anticancer assay (NCI tumor cells screen), colon cancer panel. The conditions noted are these: colon cancer cell lines, read-out: GI50 (drug molar concentration causing 50% cell growth inhibition), Colon Cancer. In kind it is cell-based, human.

Data set [8] concerns IGROV1, OVCAR-3, OVCAR-4, OVCAR-5, OVCAR-8, and SK-OV-3 of ovarian cancer. The data set can be described thus: In vitro anticancer assay (NCI tumor cells screen), ovarian cancer panel. In kind it is cell-based, human. The conditions noted are these: ovarian cancer cell lines, read-out: GI50 (drug molar concentration causing 50% cell growth inhibition), Ovarian Cancer.
In another data set the test system is UACC-257. The data set can be described thus: In vitro anticancer assay (NCI tumor cells screen), UACC-257. Conditions: Homo sapiens; melanoma cell line UACC-257; read-out: GI50 against UACC-257. In kind it is cell-based.
Data set [9] deals with SF-268, SF-295, SF-539, SNB-19, SNB-75, and U251 of CNS cancer. The data set can be described thus: In vitro anticancer assay (NCI tumor cells screen), CNS cancer panel. The conditions noted are these: CNS cancer cell lines, read-out: GI50 (drug molar concentration causing 50% cell growth inhibition), CNS Cancer. Type of data set: cell-based, human.
Data set [10] relates to A549/ATCC, EKVX, HOP-62, HOP-92, NCI-H226, NCI-H23, NCI-H322M, and NCI-H522 of non-small cell lung cancer. The data set can be described thus: In vitro anticancer assay (NCI tumor cells screen), lung cancer panel. Conditions: non-small cell lung cancer cell lines, read-out: GI50 (drug molar concentration causing 50% cell growth inhibition), Lung Cancer. Type of data set: cell-based, human.

Structures can show the parent of a compound that is named as a salt. Where two headings read alike, the source gives them in different places.

In the case of `CON=C(C)c1cccc(Nc2nc3ccccc3c3occc23)c1` [Compound 5, 1-[3-(furo[3,2-c]quinolin-4-ylamino)phenyl]ethanone O-methyloxime], the GI50 in the data set with UO-31 was under 0.01 µM; in data set [1] (Homo sapiens, DU-145) it was 15.2 µM; in data set [2] (Homo sapiens) it was 10.1 µM; in the data set on UACC-62, under 0.01 µM; in data set [3] (Homo sapiens), 8.78 µM; in data set [4] (Homo sapiens), 13.1 µM. For the same compound, the GI50 in data set [5] (Homo sapiens) was found to be 15.4 µM; in data set [6] (Homo sapiens), 11 µM; in data set [7] (Homo sapiens), 10.3 µM; in data set [8] (Homo sapiens), 15.2 µM; in the data set on UACC-257, 0.042 µM; in data set [9] (Homo sapiens), 14.8 µM. In addition, the GI50 in data set [10] (Homo sapiens) worked out at 10.8 µM.

In the case of `CC(=O)c1cccc(Nc2nc3ccccc3c3occc23)c1` [Compound 3], the GI50 in [1] is 32.5 µM; in [2], 16.1 µM; in data set [3], 22.5 µM; in [4], 34 µM; in data set [5] it was 91.2 µM; in [6] it was 40.2 µM. In addition, the GI50 in [7] turned out to be 42.8 µM; in data set [8], 28.4 µM; in data set [9], 19.1 µM; in [10], 15.5 µM.

Turning to `CC(=NO)c1cccc(Nc2nc3ccccc3c3occc23)c1` [Compound 4, 1-[3-(furo[3,2-c]quinolin-4-ylamino)phenyl]ethanone oxime], the GI50 is 0.03 µM with UO-31; 12.7 µM in [1] (Homo sapiens, DU-145); 10.3 µM in data set [2] (Homo sapiens); under 0.01 µM with UACC-62; 7.8 µM in data set [3] (Homo sapiens); 12 µM in data set [4] (Homo sapiens). Also, the GI50 is 9.26 µM in data set [5] (Homo sapiens); 9.82 µM in [6] (Homo sapiens); 10.3 µM in data set [7] (Homo sapiens); 14.5 µM in data set [8] (Homo sapiens); under 0.01 µM in the data set with UACC-257; 14.8 µM in [9] (Homo sapiens). Besides, the GI50 in [10] (Homo sapiens) came out at 8.98 µM.

A word on the melting point: it is the temperature, or range, at which the solid turns liquid. The compound `CON=C(C)c1cccc(Nc2nc3ccccc3c3occc23)c1` (as salt: HCl) [Compound 5, 1-[3-(furo[3,2-c]quinolin-4-ylamino)phenyl]ethanone O-methyloxime] returned a melting point of 222 to 223 °C.

On to `CC(=NO)c1cccc(Nc2nc3ccccc3c3occc23)c1` (as salt: HCl) [Compound 4, 1-[3-(furo[3,2-c]quinolin-4-ylamino)phenyl]ethanone oxime], for which the melting point was 164 °C (dec.).
